Like-named read-outs stand apart in the source and are kept apart here.
Tests used:
CFTR = CFTR (Homo sapiens, UniProt P13569); settings: literature; depending on cell type and membrane potential; read-out: IC50 for CFTR chloride conductance block; cited from earlier work
human wildtype CFTR = biological target: T1, human wildtype CFTR (Homo sapiens, UniProt P13569); assay: Fluorescence platereader assay of CFTR-mediated iodide influx (YFP quenching) in FRT cells; format: cell-based; settings: for inhibition at 5 µM / inhibition at 25 µM: FRT
T1 construct: expressed in transfected cells; host or cells: Fischer rat thyroid (FRT) cells
T1 sequence (P13569 whole entry): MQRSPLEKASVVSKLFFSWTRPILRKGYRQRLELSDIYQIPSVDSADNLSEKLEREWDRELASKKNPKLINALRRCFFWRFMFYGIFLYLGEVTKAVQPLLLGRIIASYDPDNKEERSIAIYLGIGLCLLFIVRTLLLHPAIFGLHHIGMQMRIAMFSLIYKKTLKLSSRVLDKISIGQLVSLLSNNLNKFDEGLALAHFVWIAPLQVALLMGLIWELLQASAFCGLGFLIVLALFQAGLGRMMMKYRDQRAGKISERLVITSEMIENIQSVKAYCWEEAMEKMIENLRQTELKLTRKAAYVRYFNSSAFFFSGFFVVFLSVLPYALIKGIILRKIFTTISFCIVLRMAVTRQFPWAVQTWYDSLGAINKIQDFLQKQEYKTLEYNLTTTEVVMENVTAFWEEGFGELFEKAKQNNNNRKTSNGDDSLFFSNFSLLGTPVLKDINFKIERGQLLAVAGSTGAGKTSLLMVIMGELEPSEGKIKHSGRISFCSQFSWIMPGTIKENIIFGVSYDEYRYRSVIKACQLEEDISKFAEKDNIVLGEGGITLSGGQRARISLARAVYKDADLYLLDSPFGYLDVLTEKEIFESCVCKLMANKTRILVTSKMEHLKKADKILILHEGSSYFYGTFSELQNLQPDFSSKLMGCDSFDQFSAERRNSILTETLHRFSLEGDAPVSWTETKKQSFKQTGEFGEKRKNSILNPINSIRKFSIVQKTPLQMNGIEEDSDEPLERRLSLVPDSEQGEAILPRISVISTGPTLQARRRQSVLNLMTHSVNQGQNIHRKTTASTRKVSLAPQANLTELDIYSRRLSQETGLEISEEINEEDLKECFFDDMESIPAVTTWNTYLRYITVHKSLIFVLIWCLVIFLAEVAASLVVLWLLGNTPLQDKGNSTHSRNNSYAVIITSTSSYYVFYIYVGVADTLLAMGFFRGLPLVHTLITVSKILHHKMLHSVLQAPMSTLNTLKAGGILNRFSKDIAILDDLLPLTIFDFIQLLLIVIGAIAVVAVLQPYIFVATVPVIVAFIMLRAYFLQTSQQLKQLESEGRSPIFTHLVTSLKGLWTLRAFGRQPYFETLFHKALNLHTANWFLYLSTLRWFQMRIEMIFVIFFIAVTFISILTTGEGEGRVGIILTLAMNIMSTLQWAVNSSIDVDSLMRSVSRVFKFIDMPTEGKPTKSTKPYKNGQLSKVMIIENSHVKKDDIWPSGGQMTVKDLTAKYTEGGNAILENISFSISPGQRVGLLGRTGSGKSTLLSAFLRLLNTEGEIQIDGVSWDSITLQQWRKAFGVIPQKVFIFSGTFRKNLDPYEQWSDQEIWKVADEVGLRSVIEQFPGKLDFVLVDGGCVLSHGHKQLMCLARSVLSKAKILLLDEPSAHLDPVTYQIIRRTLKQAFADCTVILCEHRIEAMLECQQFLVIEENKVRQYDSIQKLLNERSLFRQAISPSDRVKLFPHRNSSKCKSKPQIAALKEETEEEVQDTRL
Procedure, shortened: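 Fischer rat thyroid cells co-expressing human wildtype CFTR and the YFP-H148Q/1152L halide sensor were seeded at 20,000 cells per well in 96-well black-walled plates and assayed 48 h later at confluence. After PBS washes and a 15 min incubation, CFTR was maximally activated with an agonist mixture. Fluorescence was recorded for 2 s before and 10 s after adding 160 μL iodide-substituted PBS, and iodide influx rates came from non-linear regression.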

[1] = Table 2, screening, 5 μM, read-out: % Inhibition at 5 μM
[2] = Table 2, screening, 25 μM, read-out: % Inhibition at 25 μM

Chain of CFTR (P13569 whole entry, species assumed): as the sequence (P13569 whole entry) above

Compound | inhibition at 5 µM (human wildtype CFTR; [1]) [%] | inhibition at 25 µM (human wildtype CFTR; [2]) [%] | inhibition at 5 µM (human wildtype CFTR; read-out: % inhibition at 25/5 μM (5 μM value), Table 1, 5 μM compound) [%] | inhibition at 25 µM (human wildtype CFTR; read-out: % inhibition at 25/5 μM (25 μM value), Table 1, 25 μM compound) [%] | IC50 (human wildtype CFTR; apparent IC50 from concentration-inhibition data, fluorescence platereader assay) [µM] | IC50 (CFTR) [µM]
O=C(CNc1ccc2ccccc2c1)N/N=C/c1cc(Br)c(O)c(Br)c1O [GlyH-101] | – | – | – | – | – | ~5
COc1ccc(-c2c3c(=O)n(C)c(=O)n(C)c3c3n2-c2ccccc2NC3c2cccc(O)c2)cc1 (centres unmarked) | < 10 | 33 | – | – | – | –
COc1ccc(-c2c3c(=O)n(C)c(=O)n(C)c3c3n2-c2ccccc2NC3c2ccccc2)cc1 (centres unmarked) | < 10 | 39 | – | – | – | –

More lines, main results first:

inhibition at 5 µM (human wildtype CFTR; [1]) [%] | inhibition at 25 µM (human wildtype CFTR; [2]) [%] | inhibition at 5 µM (human wildtype CFTR; read-out: % inhibition at 25/5 μM (5 μM value), Table 1, 5 μM compound) [%] | inhibition at 25 µM (human wildtype CFTR; read-out: % inhibition at 25/5 μM (25 μM value), Table 1, 25 μM compound) [%] | IC50 (human wildtype CFTR; apparent IC50 from concentration-inhibition data, fluorescence platereader assay) [µM] | Compound | IC50 (CFTR) [µM]
15 | 74 | – | – | – | Cc1ccccc1-c1c2c(=O)n(C)c(=O)n(C)c2c2n1-c1ccccc1NC2c1cccc(O)c1 (centres unmarked) [PPQ-242, 7,9-Dimethyl-11-(2-methylphenyl)-6-(3-hydroxyphenyl)-5,6-dihydro-pyrimido[4′,5′-3,4]pyrrolo[1,2-a]quinoxaline-8,10-(7H,9H)-dione] | –
60 | 90 | 60 | 90 | 1.2 | Cn1c(=O)c2c(-c3ccccc3)n3c(c2n(C)c1=O)C(c1cccc([N+](=O)[O-])c1)Nc1ccccc1-3 (centres unmarked) [PPQ-202, 7,9-Dimethyl-11-phenyl-6-(3-nitrophenyl)-5,6-dihydro-pyrimido[4′,5′-3,4]pyrrolo[1,2-a]quinoxaline-8,10-(7H,9H)-dione] | –
67 | 67 | – | – | – | Cc1cccc(C2Nc3ccccc3-n3c(-c4ccccc4)c4c(=O)n(C)c(=O)n(C)c4c32)c1 (centres unmarked) [PPQ-232, 7,9-Dimethyl-11-phenyl-6-(3-methylphenyl)-5,6-dihydro-pyrimido[4′,5′-3,4]pyrrolo[1,2-a]quinoxaline-8,10-(7H,9H)-dione] | –

— patent publication US8609661B2, “Pyrimido-pyrrolo-quinoxalinedione inhibitors of cystic fibrosis transmembrane conductance regulator protein and uses therefor” (The Regents of the University of California, priority 2009, dated 2013)
